US12594263B2, “CBL inhibitors and compositions for expansion of immune cells” (Nurix Therapeutics, Inc., priority 2019, dated 2026)

Assays:
[1] = system: human tumor-infiltrating lymphocytes (TIL); assay: Flow cytometry immunophenotyping of expanded TIL (lineage and memory markers); assay type: cell-based; conditions: for CD4 TCM CD62L+ CCR7+, percentage of total TIL cell number on day 28: TIL1 population, alone or with IL-2
Procedure: The plates were placed in a humidified 37° C. incubator with 5% CO2. Half of the medium was replaced every two days after culture initiation. […] Subsequently, half the media was replaced thrice weekly, cultures were split to maintain a cell density of 1×10^6 cells/mL. […] Mitochondrial markers including, Mitotracker, Mitoprobe, and 2-NBDG may also be used to assess differentiation and/or activation of cells.
T lymphocytes were defined based on lineage and differentiation marker expression according to the developmental model (Restifo, Blood, 124:476-477, 2014), as shown in Table 4.

[2] = system: human T cells from peripheral blood mononuclear cells; assay: Expansion of CMV pp65 reactive T cells from peripheral blood mononuclear cells; assay type: cell-based; conditions: for Percentage of total cell number relative to IL-2 alone on day 11: alone or with IL-2 2 ng/mL
Text: At day eleven, cells were pooled and counted, and immunophenotyped at day 11 by flow cytometry by measuring expression of lineage (CD4, CD8) and differentiation (including CD45RA, CD45RO, CD95, CCR7, CD62L, TCF1, PD-1, TIM3, LAG3) markers.

OT-1 cells [3] = assay: In vivo frequency, persistence and exhaustion markers of transferred OT-1 cells (blood, spleen, tumor, FACS); design: species or system mouse
Procedure: Dead cells were removed (Miltenyi Biotec Cat #130-090-101) prior to transfer in vivo to monitor their trafficking and function in an EG.7 lymphoma model, which expresses the OVA antigen. Approximately five million cells per mouse were transferred to mice having an average tumor burden of about 70 mm^3. Following in vivo transfer of the OT-1 cells, antitumor response was monitored over time and the quality and quantity of immune response were assessed at various time points.
(§1) The expanded OT-1 cells were characterized by FACS analysis and transferred into E.G7-OVA mice, which bear ovalbumin (OVA) expressing tumors. Following in vivo transfer of expanded OT-1 cells, antitumor response was monitored over time and the quality and quantity of immune response was assessed at various time points. Analysis included FACS analysis on blood, tumor, and spleen samples. Analysis also included re-stimulation of splenocytes with OVA Class I peptide to evaluate the multifunctionality of the antigen-specific effector T cells.
On Day 0, E.G7-OVA cells were implanted into each mouse. On Day 5, approximately 5×10^6 in vitro expanded OT-1 cells were injected into the tail of each mouse. On Day 9, blood was analyzed by FACS. On Day 14, blood, tumor and spleen samples were analyzed by FACS. On Day 27, blood was analyzed by FACS. Tumor volume was measured approximately every five days through about 50 days post implant.
OT-1 cells were expanded according to the previous examples and administered to E.G7-OVA mice, which bear ovalbumin (OVA) expressing tumors. The cells were evaluated for their in vivo properties.
Expanded OT-1 cells were assessed in blood 4 days and 22 days after transfer.
Expanded OT-1 cells were assessed in tumors 4 days after transfer.

OT-1 cells [4] = assay: Re-stimulation of harvested splenocytes with OVA Class I peptide; assay type: cell-based, mouse
Procedure: as §1
Expanded OT-1 cells were assessed from splenocytes 11 days after transfer. Harvested splenocytes were re-stimulated with OVA Class I peptide for 72 hours.
Expanded OT-1 cells were assessed from splenocytes 11 days after transfer. Harvested splenocytes were re-stimulated with OVA Class I peptide for 4 hours.
Expanded OT-1 cells were assessed from splenocytes 11 days after transfer. Harvested splenocytes were re-stimulated with OVA Class I peptide for 24 hours.

E.G7-OVA tumor cells = assay: Tumor re-challenge of long term survivors 149 days after OT-1 transfer; assay type: in vivo, mouse
Text: To determine whether OT-1 cells are capable of long-term tumor protection, the long term survivors of the above experiment (FIG. 12) were re-challenged with a lethal dose of E.G7-OVA tumor cells 149 days after the initial adoptive transfer of the in vitro expanded OT-1 cells. Re-challenge induced OT-1 cell expansion at the site engrafted with E.G7-OVA tumor cells expressing ovalbumin antigen, thereby effectively controlling tumor growth (FIG. 21).

[5] = system: TIL from ovarian, colon and breast cancer tissues; assay: Phenotype of TIL expanded 14 days in GREX 10 flasks; assay type: cell-based, human; conditions: GREX 10 format, versus IL-2 alone (FIG. 26)
Procedure: TIL directly derived from fresh ovarian, colon and breast cancer tissues (fresh, n=7) obtained after 14 days' ex vivo culture of cancer tissue fragments were analyzed by flow cytometry.
TIL directly derived from fresh ovarian, colon and breast cancer tissues (fresh, n=7) obtained after 14 days' ex vivo culture of cancer tissue fragments were analyzed by flow cytometry. FIG. 26 provides FACS data showing percentages of central memory (CD45RO+CD8+) and effector memory (CD45RO+CD8-) phenotype among CD8+CD45RO+, respectively. FACS results were expressed as the mean SEM.

breast TIL = assay: CDR3 diversity of expanded breast TIL (iRepertoire sequencing); assay type: cell-based, human; conditions: 14 days in GREX 10 (FIGS. 32A-C)
Procedure: TIL were cultured for 14 days in GREX™10. […] The raw data were analyzed by iRepertoire using IRmap programs with a modified Smith-Waterman algorithm. Using CDR3algebra software, the calculation of shared CDR3s across samples with the indicated treatment was assessed. […] All CDR3 frequencies were scaled to 10 million reads to account for differences in read depth among samples. Data was normalized so that each uCDR3-VDJ combination was treated as a quantity of 1 regardless of read count, and then analyzed for V usage and J usage.

**Q.** For `C[C@@H]1CN(Cc2cc3c(c(C(F)(F)F)c2)CN(c2cccc(C4(Cc5nncn5C)COC4)c2)C3=O)CCC1(F)F` [Compound 103], which “CD4 TCM CD62L+ CCR7+, percentage of total TIL cell number on day 28” value ([1]; 0.1 μM Cbl-i) is on record?
**A.** The value was 2.8%.

**Q.** What about the “CD4 TCM CD62L+ CCR7+, percentage of total TIL cell number on day 28” value ([1]; 1.0 μM Cbl-i) of the same molecule?
**A.** Its value is 8.0%.

**Q.** What about the “Phenotype of human TIL expanded ex vivo” value ([1]; Table 5) of the same molecule?
**A.** The value was “TCM (CD45RO+, CD95+, CCR7+, CD62L+) or TEM (CD45RO+, CD95+, CCR7−, CD62L−) phenotype”.

**Q.** And the “Expansion of CD8+ versus CD4+ T lymphocytes in TIL culture” value ([1]; tumor sample, FIG. 7)?
**A.** Its value is “selectively expand CD8+ T lymphocytes”.

**Q.** What about the “Percentage of total cell number relative to IL-2 alone on day 11” value ([2]; Donor 1, 0.1 μM Cbl-i) of the same molecule?
**A.** Its value is 12%.

**Q.** What about the “Percentage of total cell number relative to IL-2 alone on day 11” value ([2]; Donor 1, 1.0 μM Cbl-i) of the same molecule?
**A.** The value was 12%.

**Q.** And the “Percentage of total cell number relative to IL-2 alone on day 11” value ([2]; Donor 1, 10 μM Cbl-i)?
**A.** The value was 44%.

**Q.** And the “Percentage of total cell number relative to IL-2 alone on day 11” value ([2]; Donor 2, 0.1 μM Cbl-i)?
**A.** Its value is 70%.

**Q.** And the “Percentage of total cell number relative to IL-2 alone on day 11” value ([2]; Donor 2, 1.0 μM Cbl-i)?
**A.** The value was 95%.

**Q.** What about the “Percentage of total cell number relative to IL-2 alone on day 11” value ([2]; Donor 2, 10 μM Cbl-i) of the same molecule?
**A.** Its value is 45%.

**Q.** And the “Percentage of total cell number relative to IL-2 alone on day 11” value ([2]; Donor 3, 1.0 μM Cbl-i)?
**A.** Its value is 75%.

**Q.** And the “Percentage of total cell number relative to IL-2 alone on day 11” value ([2]; Donor 3, 10 μM Cbl-i)?
**A.** The value was 38%.

**Q.** And the “Expansion of T cells in the absence of IL-2” value ([2]; PBMC, no IL-2)?
**A.** The value was “considerable expansion of T cells”.

**Q.** And the “Cells expressing stem markers TCF1+, PD-1+ and TIM-3+” value (OT-1 cells [3]; OT-1 cells after transfer)?
**A.** The value was “greater percentage of cells that expressed stem markers”.

**Q.** What about the “Frequency of OT-1 cells in total CD8+ T cells and CD45+ cells and persistence” value (OT-1 cells [3]; blood, 4 or 9 days after transfer (FIG. 10)) of the same molecule?
**A.** The value was “higher frequency in total CD8+ T cells and CD45+ cells and in vivo persistence in the blood”.

**Q.** And the “Frequency of OT-1 cells in total CD45+ cells and persistence” value (OT-1 cells [3]; blood, 4 days and 22 days after transfer (FIGS. 13A, 13B))?
**A.** Its value is “higher frequency in total CD45+ cells and persisted longer than cells expanded with IL-2 alone”.

**Q.** And the “Expression of exhaustion markers PD1, TIM3, LAG3” value (OT-1 cells [3]; tumor, versus IL-2 alone (FIGS. 14B, 14C))?
**A.** The value was “lower level of expression of exhaustion markers”.

**Q.** And the “Tumor infiltration, frequency of OT-1 cells in total CD45+ cells” value (OT-1 cells [3]; tumors, 4 days after transfer (FIG. 14A))?
**A.** The value was “increased ability to infiltrate the tumor”.

**Q.** And the “Exhaustion markers (PD1 and TIM3) in multifunctional cells” value (OT-1 cells [4]; OVA Class I peptide 4 hours, versus IL-2 alone (FIG. 16C))?
**A.** Its value is “lower level of expression of exhaustion markers (PD1 and TIM3)”.

**Q.** And the “Multifunctionality (IFN-gamma and TNF-alpha double positive cells)” value (OT-1 cells [4]; OVA Class I peptide 4 hours, versus IL-2 alone (FIGS. 16A, 16B))?
**A.** The value was “comparable multifunctionality”.

**Q.** What about the “IL-2 production upon restimulation” value (OT-1 cells [4]; OVA Class I peptide 24 hours (FIG. 17B)) of the same molecule?
**A.** Its value is “increased IL-2 production upon restimulation”.

**Q.** What about the “Ability to proliferate in response to peptide restimulation” value (OT-1 cells [4]; splenocytes 11 days after transfer, OVA Class I peptide 72 hours (FIG. 15)) of the same molecule?
**A.** Its value is “superior intrinsic ability to proliferate in response to peptide restimulation”.

**Q.** And the “Protection from tumor re-challenge (FIG. 21)” value (E.G7-OVA tumor cells; OT-1 cells expanded in vitro)?
**A.** The value was “potent memory cells capable of protecting mice from tumor re-challenge”.

**Q.** What about the “Number of OT-1 cells in blood 149 days after initial adoptive transfer” value (E.G7-OVA tumor cells; before re-challenge (FIG. 22A)) of the same molecule?
**A.** The value was “higher number in the blood”.

**Q.** And the “Recall response, number of OT-1 cells per ml of blood” value (E.G7-OVA tumor cells; day 5 after tumor re-challenge, versus IL-2 alone (FIG. 22B))?
**A.** The value was “significantly more rapid recall response”.

**Q.** And the “CD8+ central memory T cells” value [5]?
**A.** Its value is “increases CD8+ central memory T cells”.

**Q.** What about the “Unique CDR3s” value (breast TIL) of the same molecule?
**A.** The value was “increased”.
